Results on 5 molecules are retold here after publication PMC8945229, “Development and Biological Characterization of a Novel Selective TrkA Agonist with Neuroprotective Properties against Amyloid Toxicity” (Biomedicines, 2022).

One data set concerns γ-secretase. The data set can be described thus: γ-secretase activity / APP processing in U2OS APP-C99-tGFP cells. Type of data set: cell-based. Conditions: 3 μM, positive control. The protocol: PC12 and HEK293T cells were obtained from LGC Promochem GmbH (Teddington, UK) and cultured under the conditions specified by the manufacturer. NIH3T3 cells were stably transfected with human TrkB plasmid. PC12 cells were grown in DMEM medium (11965084, Gibco, Grand Island, NY, USA) containing 10% Horse Serum (16050122, Gibco, Grand Island, NY, USA), 5% Fetal Bovine Serum (10270106, Gibco, Grand Island, NY, USA), 100 units/mL Penicillin and 0.1 mg/mL Streptomycin (15140122, Gibco, Grand Island, NY, USA) at 5% CO2 and 37 °C. Cells were used between passages 5–20. HEK293T and NIH3T3 cells were grown in the same medium as PC12 cells supplemented with 10% Fetal Bovine Serum and lacking Horse Serum. For transient transfection of HEK293T cells, lipofectamine was used and cells were transfected with human p75^NTR and Traf6 plasmids. To determine the intracellular activity of endogenous secretases, we tagged (tGFP) a truncated mutant (Tm) of APP containing the original amino acids sequence from M516 to N773. This Tm conserves the secretases cleavage sites, clathrin binding site, tau protein binding site, collagen binding site and some glycosylation sites critical for protein localization and intracellular trafficking. The cDNA of the TmAPP gene was amplified by PCR and subcloned into pturbo-GFP vector. The construction was transfected into U2OS cells (ATCC Cat Number HTB-96) using Lipofectamine LTX (Thermo Fisher Scientific, Waltham, MA, USA). After 48 h, individual cells were plated in MTP96 plates using F.SIGHT (CYTENA GmbH, Freiburg, Germany), and cultured in complete medium containing 250 μg/mL G418 for selection. The selection medium was changed every two to three days. The cells were allowed to grow for 3 to 4 weeks, after which clones were isolated for further analysis. Resistant clones were checked by RT-PCR and epifluorescence microscopy.
The Alzheimer’s Disease (AD) phenotype is partly attributed to the toxic effects caused by oligmeric Aβ, which results in reduced neuronal trophic support, caused by deregulation of neurotrophic signaling. It is therefore reasonable that a small molecule that can selectively activate TrkA signaling and promote neuronal survival could alleviate the detrimental effects caused by toxic Aβ oligomers, especially during the early phases of the disease or modulate APP misprocessing and therefore reduce the production of the toxic Aβ. The U2OS stably expressing APP-C99-tGFP cell line was used in order to monitor γ-secretase activity, the process responsible for Aβ production from APP. The assay achieves this by measuring the levels of fluorescent APP-C99 construct produced by β-secretase activity. When γ-secretase is active, the construct is cleaved, leading to Aβ production. […] Therefore, higher fluorescence levels correspond to decreased γ-secretase activity and Aβ aggregate formation by extension. […] In addition, in order to investigate whether ENT-A013 can protect cells against Aβ-induced toxicity we isolated neurons from the hippocampus of E17.5 mouse embryos, a brain area that is heavily affected in AD. Neurons were left in culture for 16–18 DIV and then were treated with oligomeric Aβ and ENT-A013 for 48 h. Subsequently, cells were fixed and cell death was assessed using TUNEL assay.
(A,B) Primary hippocampal neurons were treated for 48 h with oligomeric Aβ in the presence of ENT-A013 and TUNEL assay was used to quantify cell death. Representative images from 3 independent experiments. Data are shown as ±SEM. One-way ANOVA, Tukey’s Test correction: ** p < 0.01; *** p < 0.001. (C) Aggregate formation on untreated cells, treated with DAPT inhibitor of γ-secretase or with compound ENT-A013. […] Aggregate formation was quantified with a BD Pathway 855 High-Content Bioimager and Attonvision software.

Data set [1] deals with T1, TrkA (Rattus norvegicus, UniProt P35739).
T1 construct: we used PC12 cells, a cell line that express TrkA and p75^NTR; host or cells: PC12
More on the design: method as in PMID 27618740. Conditions: cited from earlier work.

The test system of data set [2] is Erk1/2. Also noted: method as in PMID 27618740. Conditions: cited from earlier work.
On the set-up of data set [3]: method as in PMID 27498123, PMID 33638308. Conditions: t = 60 min; cited from earlier work.
Data set [4] concerns the target T1, TrkA. The data set can be described thus: TrkA phosphorylation in PC12 cells (IP with TrkA antibody, Western blot against phosphorylated Tyrosine). It counts as cell-based. Conditions: for time TrkA phosphorylation is sustained after treatment: PC12 cells, 10, 30 or 60′ treatment. The protocol:
For immunoprecipitation experiments PC12 or HEK293T, cells were used when at 70–80% confluent. […] Cells were then lysed in Pierce™ IP Lysis Buffer (87788, Thermo Fischer Scientific, Waltham, MA, USA) containing proteases (539138, Calbiochem, Darmstadt, Germany) and phosphatase inhibitors (524629, Calbiochem, Darmstadt, Germany). Lysates were then immunoprecipitated overnight at 4 °C with TrkA antibody (1:100, 06-574, Sigma-Aldrich, St. Louis, MO, USA) (Table S1) or p75^NTR antibody (1:100, ab6172, Abcam plc., Cambridge, UK) followed by 4 h incubation with protein G-plus agarose beads (sc-2002, Santa Cruz Biotechnology, Inc., Dallas, TX, USA). Beads were then collected, washed 3X with lysis buffer, resuspended in SDS loading buffer and subjected to Western blot against phosphorylated Tyrosine (1:1000, BAM1676, R&D Systems, Inc., Minneapolis, MN, USA) or Traf6 antibody (1:2000, ab33915, Abcam, plc., Cambridge, UK). Whole cell lysates were subjected to Western blot against TrkA (1:1000, 06-574, Sigma-Aldrich, St. Louis, MO, USA), phosphorylated TrkB (1:1000, ABN1381, Sigma-Aldrich, St. Louis, MO, USA), phosphorylated TrkC (1:1000, STJ90960, St John’s Laboratory, Ltd., London, UK), TrkB (1:1000, 07-225-I, Sigma-Aldrich, St. Louis, MO, USA), TrkC (1:1000, C44H5, Cell Signaling Technology, Danvers, MA, USA), p75 (1:1000, 839701, Biolegend, Inc., San Diego, CA, USA), Traf6 (1:2000, ab33915, Abcam, plc., Cambridge, UK) phosphorylated Akt (1:1000, 9721S, Cell Signaling Technology, Danvers, MA, USA), phosphorylated Erk1/2 (1:1000, 9101S, Cell Signaling Technology, Danvers, MA, USA), total Akt (1:1000, 4691S Cell Signaling Technology, Danvers, MA, USA) and total Erk1/2 (1:1000, 4695S, Cell Signaling Technology, Danvers, MA, USA).

The subject of data set [5] is Erk1/2. In words: Erk1/2 phosphorylation in PC12 cells (Western blot). Conditions: for Erk1/2 phosphorylation: 500 nM, 30′. It counts as cell-based. The protocol:
For immunoprecipitation experiments PC12 or HEK293T, cells were used when at 70–80% confluent. Cells were starved of serum for 4 h and subsequently treated with 100 ng/mL NGF or 500 nM of compound ENT-A013 for 30′. Cells were then lysed in Pierce™ IP Lysis Buffer (87788, Thermo Fischer Scientific, Waltham, MA, USA) containing proteases (539138, Calbiochem, Darmstadt, Germany) and phosphatase inhibitors (524629, Calbiochem, Darmstadt, Germany). Lysates were then immunoprecipitated overnight at 4 °C with TrkA antibody (1:100, 06-574, Sigma-Aldrich, St. Louis, MO, USA) (Table S1) or p75^NTR antibody (1:100, ab6172, Abcam plc., Cambridge, UK) followed by 4 h incubation with protein G-plus agarose beads (sc-2002, Santa Cruz Biotechnology, Inc., Dallas, TX, USA). Beads were then collected, washed 3X with lysis buffer, resuspended in SDS loading buffer and subjected to Western blot against phosphorylated Tyrosine (1:1000, BAM1676, R&D Systems, Inc., Minneapolis, MN, USA) or Traf6 antibody (1:2000, ab33915, Abcam, plc., Cambridge, UK). Whole cell lysates were subjected to Western blot against TrkA (1:1000, 06-574, Sigma-Aldrich, St. Louis, MO, USA), phosphorylated TrkB (1:1000, ABN1381, Sigma-Aldrich, St. Louis, MO, USA), phosphorylated TrkC (1:1000, STJ90960, St John’s Laboratory, Ltd., London, UK), TrkB (1:1000, 07-225-I, Sigma-Aldrich, St. Louis, MO, USA), TrkC (1:1000, C44H5, Cell Signaling Technology, Danvers, MA, USA), p75 (1:1000, 839701, Biolegend, Inc., San Diego, CA, USA), Traf6 (1:2000, ab33915, Abcam, plc., Cambridge, UK) phosphorylated Akt (1:1000, 9721S, Cell Signaling Technology, Danvers, MA, USA), phosphorylated Erk1/2 (1:1000, 9101S, Cell Signaling Technology, Danvers, MA, USA), total Akt (1:1000, 4691S Cell Signaling Technology, Danvers, MA, USA) and total Erk1/2 (1:1000, 4695S, Cell Signaling Technology, Danvers, MA, USA).
In general terms: Immunoblotting shows a protein as a band on a membrane.

For a further data set, the system named is PC12 cells. In words: CellTox assay, serum deprivation-induced cell death. It counts as cell-based. Conditions: serum deprivation; for CellTox positive cells normalized to total number of cells: 24 h, 500 nM; for IC50: CellTox, read-out: IC50 (anti-apoptotic dose–response). Here is the method:
CellTox assay (G8742, Promega Corporation, Maddison, WI, USA) was used to assess survival of PC12 cells under serum deprivation conditions. PC12 cells were plated in 96-well plates, starved of serum for 4 h and subsequently treated with NGF (100 ng/mL) or ENT-A013 (500 nM) in the presence or absence of TrkA inhibitor GW441756 (20 μM, G-190, Alomone labs, Jerusalem, Israel) for 24 h. CellTox assay reagents and Hoescht (1:10,000, H3570, Invitrogen, Waltham, MA, USA) were added to each well for 30′ and cells were then imaged with a Zeiss AXIO Vert A1 fluorescent microscope (Zeiss, Jena, Germany). CellTox positive cells were normalized to total number of cells for each image.

T1 sequence (P35739 33-799): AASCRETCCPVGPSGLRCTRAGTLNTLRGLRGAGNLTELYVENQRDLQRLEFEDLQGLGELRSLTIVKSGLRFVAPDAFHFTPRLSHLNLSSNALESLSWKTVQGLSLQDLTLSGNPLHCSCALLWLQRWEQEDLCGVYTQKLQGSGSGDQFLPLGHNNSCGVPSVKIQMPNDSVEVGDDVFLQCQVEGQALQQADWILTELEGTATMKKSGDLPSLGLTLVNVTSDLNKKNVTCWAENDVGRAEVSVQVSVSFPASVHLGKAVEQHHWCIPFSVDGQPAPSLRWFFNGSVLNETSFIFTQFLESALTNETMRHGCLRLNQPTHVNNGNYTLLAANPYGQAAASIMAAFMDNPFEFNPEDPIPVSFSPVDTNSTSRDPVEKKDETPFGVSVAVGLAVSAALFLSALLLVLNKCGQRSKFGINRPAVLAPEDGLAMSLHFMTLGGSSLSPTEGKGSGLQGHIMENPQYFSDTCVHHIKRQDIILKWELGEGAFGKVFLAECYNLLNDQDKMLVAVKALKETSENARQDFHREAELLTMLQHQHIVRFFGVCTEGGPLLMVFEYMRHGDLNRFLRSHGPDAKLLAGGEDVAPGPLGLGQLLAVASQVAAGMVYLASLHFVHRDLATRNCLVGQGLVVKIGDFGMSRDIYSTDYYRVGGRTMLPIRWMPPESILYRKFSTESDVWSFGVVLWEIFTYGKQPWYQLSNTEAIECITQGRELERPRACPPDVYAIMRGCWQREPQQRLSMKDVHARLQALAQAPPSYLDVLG

On to `C[C@H](NC(=O)Cc1cc(F)cc(F)c1)C(=O)N[C@H](C(=O)OC(C)(C)C)c1ccccc1` [DAPT, reference compound], for which the “fluorescence levels (APP-C99-tGFP, in words)” value with γ-secretase was “Fluorescence levels increased”.

Consider `C[C@]12CC[C@H](O)CC1=CC[C@@H]1[C@@H]2CC[C@@]2(C)[C@H]1CC[C@@]21O[C@@H]1CO` [BNN27], for which, at TrkA [1], the “time TrkA is phosphorylated after treatment” value was “up to 6 hr”. Besides, in the data set with Erk1/2 [2], the “time beyond which Erk1/2 is not activated” value was at most 15 min. For the same molecule, the “residual of time zero” value in data set [3] is reported as 70%.

On to `CC12CCC(O)CC1=CCC1C2CCC2(C)C1CCC21CC1C=CBr` (stereo not drawn) [ENT-A013Z], for which, on TrkA [4], the “time TrkA phosphorylation is sustained after treatment” value was “up to 1 hr”. In the data set with Erk1/2 [5], the “time Erk1/2 phosphorylation is sustained after treatment” value is “up to 1 hr” and the Erk1/2 phosphorylation is reported as 4.13 ± 1.46 % of control FC. Further, in the data set with PC12 cells, the “CellTox positive cells normalized to total number of cells” value is given as 0.08 ± 0.02 and the IC50 – broadly, the concentration at which inhibition is half-maximal – came to 273 nM.

For “NGF: Nerve Growth Factor, neurotrophin acting through TrkA and p75NTR receptors”, the TrkA phosphorylation with TrkA [4] (PC12 cells, compound 500 nM or NGF 100 ng/mL, 30′) is recorded as 2.30 ± 0.62 % of control FC.

For the molecule `CC12CCC(O)CC1=CCC1C2CCC2(C)C1CCC21CC1C=CBr` (stereo not drawn) [ENT-A013E], at TrkA [4], the “time TrkA phosphorylation is sustained after treatment” value was “up to 1 hr”. Further, in the data set on Erk1/2 [5], the “time Erk1/2 phosphorylation is sustained after treatment” value is “up to 1 hr” and the Erk1/2 phosphorylation is 7.87 ± 2.23 % of control FC. Further, in the data set with PC12 cells, the “CellTox positive cells normalized to total number of cells” value was determined as 0.07 ± 0.02 and the IC50 was 281 nM.
